Earlier results, collected in patent US11197860B2 (Eli Lilly and Company, priority 2018, dated 2021).

Columns and labels:
[1] = phase 3 trials; EMA Assessment Report for Olumiant
[2] = patients in clinical trials; ALT and AST increases to >=5x and >=10x ULN observed
[3] = PBC patients; Nevens et al. 2016

Row | SMILES | patient's ALP after treatment [1] | incidence of liver enzyme elevation compared to placebo [2] | pruritus (adverse effect) [3]
1 | CCS(=O)(=O)N1CC(CC#N)(n2cc(-c3ncnc4[nH]ccc34)cn2)C1 [baricitinib, {1-(ethylsulfonyl)-3-[4-(7H-pyrrolo[2,3-d]pyrimidin-4-yl)-1H-pyrazol-1-yl]azetidin-3-yl}acetonitrile] | ALP decreased after treatment | increased incidence of liver enzyme elevation compared to placebo | 
2 | CC[C@H]1[C@@H](O)[C@@H]2[C@H](CC[C@]3(C)[C@@H]([C@H](C)CCC(=O)O)CC[C@@H]23)[C@@]2(C)CC[C@@H](O)C[C@@H]12 [obeticholic acid, Obeticholic acid] |  |  | associated with increased pruritus
